From patent US20040023981A1, “Salt forms with tyrosine kinase activity” (priority 2002, published 2004)
In brackets after ≈: the same amount, converted by molar mass.

Legend:
physchem = conditions: thermodynamic from solid, room temperature
human KDR = biological target: T1, human KDR (Homo sapiens, UniProt P35968); assay: VEGF Receptor Kinase Assay; format: biochemical
T1 construct: cloning the cytoplasmic domain of the KDR kinase as an in frame fusion at the carboxy terminus of the GST gene; made in house; host or cells: Spodoptera frugiperda (Sf21) insect cells, baculovirus vector pAcG2T
T1 sequence (P35968 786-1356 limits assumed): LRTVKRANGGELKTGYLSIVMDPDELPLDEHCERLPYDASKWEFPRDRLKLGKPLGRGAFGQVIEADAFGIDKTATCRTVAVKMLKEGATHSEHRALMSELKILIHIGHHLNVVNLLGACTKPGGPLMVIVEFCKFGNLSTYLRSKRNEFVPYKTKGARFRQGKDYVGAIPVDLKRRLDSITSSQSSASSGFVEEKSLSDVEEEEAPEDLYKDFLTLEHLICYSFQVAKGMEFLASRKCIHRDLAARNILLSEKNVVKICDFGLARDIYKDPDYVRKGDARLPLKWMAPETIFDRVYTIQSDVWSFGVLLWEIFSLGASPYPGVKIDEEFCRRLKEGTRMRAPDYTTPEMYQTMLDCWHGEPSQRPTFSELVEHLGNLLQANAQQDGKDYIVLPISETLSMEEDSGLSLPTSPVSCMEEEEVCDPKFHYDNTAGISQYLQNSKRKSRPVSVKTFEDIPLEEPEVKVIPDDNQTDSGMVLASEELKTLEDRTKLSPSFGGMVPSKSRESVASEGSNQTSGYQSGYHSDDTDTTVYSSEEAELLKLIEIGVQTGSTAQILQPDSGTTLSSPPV
Method: VEGF receptor kinase activity is measured by incorporation of radio-labeled phosphate into polyglutamic acid, tyrosine, 4:1 (pEY) substrate. The phosphorylated pEY product is trapped onto a filter membrane and the incorporation of radio-labeled phosphate quantified by scintillation counting.
The intracellular tyrosine kinase domains of human KDR (Terman, B. I. et al. Oncogene (1991) vol. 6, pp. 1677-1683.) and Flt-1 (Shibuya, M. et al. Oncogene (1990) vol. 5, pp. 519-524) were cloned as glutathione S-transferase (GST) gene fusion proteins. This was accomplished by cloning the cytoplasmic domain of the KDR kinase as an in frame fusion at the carboxy terminus of the GST gene. Soluble recombinant GST-kinase domain fusion proteins were expressed in Spodoptera frugiperda (Sf21) insect cells (Invitrogen) using a baculovirus expression vector (pAcG2T, Pharmingen).
1) Add 5 μl of inhibitor or control to the assay in 50% DMSO.
2) Add 35 μl of reaction mix containing 5 μl of 10× reaction buffer, 5 μl 25 mM ATP/10 μCi [^33P]ATP (Amersham), and 5 μl 10× substrate.
3) Start the reaction by the addition of 10 μl of KDR (25 nM) in enzyme dilution buffer.
4) Mix and incubate at room temperature for 15 minutes.
5) Stop by the addition of 50 μl stop solution.
6) Incubate for 15 minutes at 4° C.
7) Transfer a 90 μl aliquot to filter plate.
8) Aspirate and wash 3 times with wash solution. […]

solubility (physchem; 50% aqueous IPA, aqueous with cosolvent or surfactant or cyclodextrin) [mg/mL]	solubility (physchem; 50% aqueous ethanol, aqueous with cosolvent or surfactant or cyclodextrin) [mg/mL]	solubility (physchem; water, pH 2.9, water) [mg/mL]	kinase inhibitory activity (human KDR)	Structure (SMILES)
12.3 (≈ 34.4 mM)	10.4 (≈ 29.1 mM)	6 (≈ 16.8 mM)	–	CNC(=O)N1CCN(Cc2ccnc(Nc3ncc(C#N)s3)c2)CC1 [Form C, 4-[2-(5-cyano-thiazol-2-ylamino)-pyridin-4-ylmethyl]-piperazine-1-carboxylic acid methylamide]
–	–	–	inhibits the kinase KDR	CNC(=O)N1CCN(Cc2ccnc(Nc3ncc(C#N)s3)c2)CC1 [Compound 4-4, 4-[2-(5-cyano-thiazol-2-ylamino)-pyridin-4-ylmethyl]-piperazine-1-carboxylic acid methylamide]
